Measurements: paper PMC6664820, “Novel natural and synthetic inhibitors of solute carriers SGLT1 and SGLT2” (Pharmacology Research & Perspectives, 2019)
Where a name gives a salt, the structure may show the parent alone.

Assays:
hSGLT2 = molecular target: T1, hSGLT2 (Homo sapiens, UniProt P31639); assay: SGLT2 inhibition assay for validation of screening hits and similar compounds (1‐NBD‐glucose uptake, CHO‐hSGLT2 cells); type: cell-based; parameters: activity: dose or concentration left out as unconfirmed; settings: for remaining activity at 5 µM / remaining activity at 50 µM: 0.5 h, concentration not given, read-out: NORMALIZED SGLT2 ACTIVITY (%); for remaining activity at 5 µM / remaining activity at 50 µM / activity: mean; for activity: compound, normalized 1-NBD-glucose uptake, CHO-hSGLT2 cells; for SGLT2/SGLT1 ACTIVITY RATIO 5 uM Mean: ratio of normalized SGLT2 to SGLT1 activity at 5 uM
T1 sequence (P31639 1-672): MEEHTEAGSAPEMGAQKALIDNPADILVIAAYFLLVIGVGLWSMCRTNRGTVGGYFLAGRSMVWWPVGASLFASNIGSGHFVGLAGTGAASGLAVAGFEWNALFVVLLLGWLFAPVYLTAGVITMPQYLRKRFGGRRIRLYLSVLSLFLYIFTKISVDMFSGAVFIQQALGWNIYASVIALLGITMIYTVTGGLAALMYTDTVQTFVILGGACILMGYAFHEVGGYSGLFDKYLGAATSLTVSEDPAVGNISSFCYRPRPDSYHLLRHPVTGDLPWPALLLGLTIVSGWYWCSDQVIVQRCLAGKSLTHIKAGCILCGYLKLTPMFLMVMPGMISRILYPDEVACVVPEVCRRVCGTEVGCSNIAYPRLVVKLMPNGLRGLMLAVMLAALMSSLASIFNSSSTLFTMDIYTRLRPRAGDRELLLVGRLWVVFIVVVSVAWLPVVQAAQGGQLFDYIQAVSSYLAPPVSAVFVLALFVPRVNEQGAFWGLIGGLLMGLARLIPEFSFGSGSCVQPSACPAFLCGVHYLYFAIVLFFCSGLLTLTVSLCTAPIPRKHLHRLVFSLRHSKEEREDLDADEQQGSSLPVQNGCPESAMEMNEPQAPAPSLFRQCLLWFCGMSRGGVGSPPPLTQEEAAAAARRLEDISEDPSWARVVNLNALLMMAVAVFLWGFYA

CHO‐hSGLT1/2 cells = assay: Cytotoxicity assay (ToxiLight, adenylate kinase leakage into CHO‐SGLT1/2 inhibition assay media); parameters: CYTOTOXICITY / CY[…], mean / CYTOTOXICITY (% of vehicle control) Mean / CYTOTOXICITY, mean / CY[…] (% of vehicle control) Mean: dose or concentration left out as unconfirmed; settings: mean; for CY[…] 50 mM: at 50 mM (so in the source);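 for all read-outs here: bioluminescent read-out of adenylate kinase released from lysed cells into the medium, given relative to DMSO vehicle control defined as 0%, higher meaning more cytolysis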
SGLT1 = molecular target: T2, SGLT1 (Homo sapiens, UniProt P13866); assay: SGLT1 inhibition assay for validation of screening hits and similar compounds (1‐NBD‐glucose uptake, CHO‐hSGLT1 cells); type: cell-based; parameters: activity: dose or concentration left out as unconfirmed; settings: for remaining activity at 5 µM / remaining activity at 50 µM: 0.5 h, concentration not given, read-out: NORMALIZED SGLT1 ACTIVITY (%); for remaining activity at 5 µM / remaining activity at 50 µM / activity: mean; for activity: compound, normalized 1-NBD-glucose uptake, CHO-hSGLT1 cells
T2 sequence (P13866 1-664): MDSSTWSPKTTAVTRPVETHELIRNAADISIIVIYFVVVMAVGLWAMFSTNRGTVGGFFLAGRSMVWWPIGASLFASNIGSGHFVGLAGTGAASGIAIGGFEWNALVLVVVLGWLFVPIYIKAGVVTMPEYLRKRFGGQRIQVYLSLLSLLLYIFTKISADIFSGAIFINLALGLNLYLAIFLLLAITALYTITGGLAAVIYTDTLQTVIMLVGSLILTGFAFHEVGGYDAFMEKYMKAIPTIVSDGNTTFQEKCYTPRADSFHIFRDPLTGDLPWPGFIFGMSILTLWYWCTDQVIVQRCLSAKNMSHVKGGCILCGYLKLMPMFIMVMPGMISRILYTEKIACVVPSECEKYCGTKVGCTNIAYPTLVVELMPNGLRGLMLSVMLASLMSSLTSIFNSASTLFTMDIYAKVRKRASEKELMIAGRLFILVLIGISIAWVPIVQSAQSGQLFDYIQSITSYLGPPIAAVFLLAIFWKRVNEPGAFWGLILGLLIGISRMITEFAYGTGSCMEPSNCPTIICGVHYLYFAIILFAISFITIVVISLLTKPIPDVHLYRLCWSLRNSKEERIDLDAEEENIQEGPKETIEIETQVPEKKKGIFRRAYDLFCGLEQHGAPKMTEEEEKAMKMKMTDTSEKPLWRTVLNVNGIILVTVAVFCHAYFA

[1] = mean inhibition with 50 μmol/L inhibitor

SMILES	remaining activity at 5 µM (hSGLT2) [%]	remaining activity at 50 µM (hSGLT2) [%]	CY[…] 50 mM (CHO‐hSGLT1/2 cells)	remaining activity at 5 µM (SGLT1) [%]	remaining activity at 50 µM (SGLT1) [%]	activity (hSGLT2) [%]	SGLT2/SGLT1 ACTIVITY RATIO 5 uM Mean (hSGLT2)	CYTOTOXICITY (% of vehicle control) Mean (CHO‐hSGLT1/2 cells)	activity (SGLT1) [%]	SGLT2/SGLT1‐50μmol/L (ratio of SGLT2 to SGLT1 activities with 50 μmol/L inhibitor) (SGLT1)	CYTOTOXICITY (CHO‐hSGLT1/2 cells)	SGLT2 inhibition (hSGLT2; [1])	SGLT1 inhibition (SGLT1; [1])
C=C[C@@]1(C)CC(=O)[C@]2(O)[C@@]3(C)[C@@H](O)CCC(C)(C)[C@@H]3[C@H](O)[C@H](OC(C)=O)[C@@]2(C)O1 [Forskolin]	103	95	12	89	79								
COc1cc(O[C@@H]2O[C@H](CO)[C@@H](O)[C@H](O)[C@H]2O)c2c(c1)O[C@H](c1ccc(O)cc1)CC2=O [Sakuranin]						100	1.0	-1.5 % of vehicle control	98				
CCCN1CCCC[C@H]1C(=O)Nc1c(C)cccc1C [Ropivacaine HCl monohydrate]	86	67	0.836	97	70								
O=c1c(-c2ccc(O)cc2)coc2cc(O[C@@H]3O[C@H](CO)[C@@H](O)[C@H](O)[C@H]3O)ccc12 [Daidzin]						102	1.0	-19 % of vehicle control	97				
C/C=C(\C)C(=O)O[C@H]1[C@@H](OC(C)=O)c2c(ccc3ccc(=O)oc23)OC1(C)C [(+)-Praeruptorin A]						95	1.0	-5.48 % of vehicle control	94				
Clc1ccc(C(OCCN2CCCCC2)c2ccccc2)cc1 (centres unmarked) [Cloperastine HCl]						65	1.1	-5 % of vehicle control	61				
C/C=C(\C)C(=O)O[C@H]1c2c(ccc3ccc(=O)oc23)OC(C)(C)[C@H]1OC(=O)/C(C)=C/C [praeruptorin D]						110	1.4	-9 % of vehicle control	79	2.6			
Cc1cccc(C)c1NC(=O)C1CCCCN1C (racemic) [(±)-Mepivacaine HCl]	89	82		98	89						3		
C1CCC(C(CC2CCCCN2)C2CCCCC2)CC1 (centres unmarked) [Perhexiline maleate salt]	88	38	0.684	98	49								
COc1cc(/C=C/c2ccc(O)cc2)cc(OC)c1 [Pterostilbene]	102	123		100	119						-42		
CC1(C)Oc2ccc3ccc(=O)oc3c2CC1O (centres unmarked) [Lomatin]							1.0	-26 % of vehicle control				no SGLT inhibition	no SGLT inhibition
CC=C(C)C(=O)O[C@H]1[C@@H](OC(=O)CC(C)C)c2c(ccc3ccc(=O)oc23)OC1(C)C [praeruptorin E]						123	1.7	-1.25 % of vehicle control	73	3.1			
O=c1c2ccccc2[nH]c(=S)n1CCN1CCC(=C(c2ccc(F)cc2)c2ccc(F)cc2)CC1 [Diacylglycerol Kinase Inhibitor II]	106	85		105	89						-13		
Oc1c(Br)cc(Cl)c2cccnc12 [7-Bromo-5-chloro-8-hydroxyquinoline]	92	78		103	45						14		
CN1[C@@H](CC(=O)c2ccccc2)CCC[C@H]1C[C@H](O)c1ccccc1 [(-)-Lobeline HCl]	97	63	-18	98	57								
Oc1ccc(/C=C/c2cc(O)cc3c2[C@@H](c2cc(O)cc(O)c2)[C@H](c2ccc(O)cc2)O3)cc1 [(-)-e-Viniferin]	107	65		106	117						-9		
COc1cc(O)c2c(=O)c(-c3ccc(OC4OC(CO)C(O)C(O)C4O)cc3)coc2c1 (centres unmarked) [Prunetin-4-p-galactoside]						100	1.2	-26 % of vehicle control	81				
CC=C(C)C(=O)O[C@@H]1[C@H](OC(C)=O)c2c(ccc3ccc(=O)oc23)OC1(C)C [praeruptorin A]						111	1.2	-0.825 % of vehicle control	93	3.1			
Oc1ccc(/C=C/c2cc(O)cc3c2[C@H](c2cc(O)cc(O)c2)[C@@H](c2ccc(O)cc2)O3)cc1 [(+)-e-Viniferin]	102	79		97	56						6		
COc1ccc(-c2coc3cc(O[C@@H]4O[C@H](CO)[C@@H](O)[C@H](O)[C@H]4O)c(OC)cc3c2=O)cc1OC [Cladrastin-7-O-b-D-glucopyranoside]						103	1.0	-23 % of vehicle control	104				
COc1cc(/C=C/c2cc(O)cc(O)c2)c2c(c1)O[C@H](c1ccc(OC)c(O)c1)[C@H]2c1cc(O)cc(O)c1 [Shegansu B]	101	103		100	100						-25		
CCOC(=O)c1ccc(OC2OC(CO)C(O)C(O)C2O)cc1 (centres unmarked) [Clivicolide]						111	1.1	12 % of vehicle control	99				
CC1(C)Oc2ccc3ccc(=O)oc3c2[C@@H](O)[C@H]1O[C@@H]1O[C@H](CO)[C@@H](O)[C@H](O)[C@H]1O [Praeroside II]						98	1.0	10 % of vehicle control	98				
Oc1cc(O)cc(/C=C/c2ccc(O)c(O)c2)c1 [Piceatannol]	101	105		107	101						-87		
COc1ccc(-c2coc3cc(O[C@@H]4O[C@H](CO)[C@@H](O)[C@H](O)[C@H]4O)cc(O)c3c2=O)cc1 [Sissotrin]						106	1.1	-23 % of vehicle control	99				
CC=C(C)C(=O)O[C@H]1c2c(ccc3ccc(=O)oc23)OC(C)(C)[C@H]1OC(C)=O [(+)-Pteryxin]						81	1.1	2 % of vehicle control	75				
